Source: ChEMBL document CHEMBL1649447, “Colorimetric high-throughput screen for detection of heme crystallization inhibitors” (Antimicrob Agents Chemother, 2009)

Tests used:
Heme [1] = test: Inhibition of heme crystallization by hemichrome inhibition of beta-hematin assay; format: functional
Heme [2] = test: Inhibition of heme crystallization by cell-free heme crystallization screen assay
Plasmodium falciparum = test: Antimicrobial activity against Plasmodium falciparum 3D7 by DAPI growth inhibition assay; format: functional, organism-based

IC50 (Heme [1]) [equiv]	IC50 (Heme [2]) [µM]	Structure (SMILES)	IC50 (Plasmodium falciparum) [µM]
2.9	476	OC(c1cc(C(F)(F)F)nc2c(C(F)(F)F)cccc12)C1CCCCN1 (configuration not stated) [MEFLOQUINE]	
1.91	374	CCN(CC)CCCC(C)Nc1ccnc2cc(Cl)ccc12 (configuration not stated) [CHLOROQUINE]	
1.45	67	CCN(CC)Cc1cc(Nc2ccnc3cc(Cl)ccc23)ccc1O.Cl	0.0068
